Where two headings read alike, the source gives them in different places.
Experiments:
BRD4 BD1 = target: T1, BRD4 BD1 (Homo sapiens, UniProt O60885); assay: AlphaScreen binding assay, BRD4 Bromodomain 1
T1 construct: made in house
In short: (§1)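 An AlphaScreen competition format was used with His-BRD4 BD1 or BD2 and biotin-H4 K5/8/12/16-acetyl peptide, each at matched final levels of 50 nM (BD1) or 100 nM (BD2). Incubation in HEPES/NaCl buffer with 0.1% BSA and 0.01% Triton X-100 ran ≥1 h before IC50 determination.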

BRD4 BD2 = target: T2, BRD4 BD2 (Homo sapiens, UniProt O60885); assay: AlphaScreen binding assay, BRD4 Bromodomain 2
T2 construct: made in house
In short: as §1

MV4-11 cells = assay: Oncology cell growth assay (3-day proliferation, CellTiter-Glo); type: cell-based; conditions: Homo sapiens, AML cell line MV4-11, 72 hours, compounds grouped by IC50 range, read-out: MV4-11 IC50 (inhibition of proliferation, gIC50)
In short: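 Compounds were serially diluted 3-fold in DMSO, giving final well concentrations from 10 down to 0.0045 μM. MV4-11 cells were then seeded at 3000 cells/well in RPMI 1640 with 10% FBS and incubated 72 hours. CellTiter-Glo signal was measured and gIC50 obtained by four-parameter logistic regression.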

Row | SMILES | IC50 (BRD4 BD1) [nM] | IC50 (BRD4 BD2) [nM] | IC50 (MV4-11 cells; MV4-11, 72 h) [nM] | IC50 (MV4-11 cells) [nM]
1 | CC(=O)N1c2ccc(-c3cnn(Cc4cncs4)c3)cc2N(C(=O)OC(C)C)C[C@@H]1C [Example I-143, (S)-isopropyl 4-acetyl-3-methyl-7-(1-(thiazol-5-ylmethyl)-1H-pyrazol-4-yl)-3,4-dihydroquinoxaline-1(2H)-carboxylate] | 100 to 1000 | 50 to 500 | 100 to 500 | 
2 | CC(=O)N1c2ccc(-c3ccc(N4CCCC4=O)cc3)cc2N(C(=O)C2CC2)C[C@@H]1C [Example I-1131] | 1000 to 10000 | 50 to 500 | 100 to 500 | 
3 | COc1ccc(Cl)cc1OC(=O)N1C[C@H](C)N(C(C)=O)c2ccc(-c3cnn(C4CC4)c3)cc21 [Example I-530] | 100 to 1000 | 50 to 500 | < 100 | 
4 | CC(=O)N1c2ccc(-c3ccc(C(=O)N4C[C@H]5CCN(C)[C@H]5C4)cc3)cc2N(C(=O)OC(C)C)C[C@@H]1C [Example I-555] | 100 to 1000 | 50 to 500 | < 100 | 
5 | CNC(=O)Nc1cc2c(cc1-c1cnn(C3CC3)c1)N(C(=O)OC(C)C)C[C@H](C)N2C(C)=O [Example I-215, Isopropyl (S)-4-acetyl-7-(1-cyclopropyl-1H-pyrazol-4-yl)-3-methyl-6-(3-methylureido)-3,4-dihydroquinoxaline-1(2H)-carboxylate] | 100 to 1000 | 50 to 500 | 100 to 500 | 
6 | CC(=O)N1c2ccc(-c3ccc(NS(C)(=O)=O)cc3)cc2N(C(=O)Oc2ccccn2)C[C@@H]1C [Example I-1316] | 100 to 1000 | 50 to 500 | 100 to 500 | 
7 | CC(=O)N1c2ccc(-c3ccc(NS(=O)(=O)c4ccc(C)cc4)cc3)cc2N(C(=O)c2ccco2)C[C@@H]1C [Example I-860] | 100 to 1000 | < 50 | < 100 | 
8 | CC(=O)N1c2ccc(-c3ccc(OCCC#N)cc3)cc2N(C(=O)c2ccco2)C[C@@H]1C [Example I-428] | 100 to 1000 | 50 to 500 | 100 to 500 | 
9 | CC(=O)N1c2ccc(-c3cnn(C4CC4)c3)cc2N(C(=O)Oc2ccccc2C)C[C@@H]1C [Example I-509] | 100 to 1000 | 50 to 500 | 100 to 500 | 
10 | COC(=O)N1c2ccc(-c3ccc(N4CCS(=O)(=O)CC4)cc3)cc2N(C(=O)C2CC2)C[C@@H]1C [Example I-455] | 100 to 1000 | 50 to 500 | 100 to 500 | 
11 | CC(=O)N1c2ccc(-c3cnn(C4CCCS(=O)(=O)C4)c3)cc2N(C(=O)OC2CCOCC2)C[C@@H]1C (stereo partly drawn) [Example I-161, oxan-4-yl (3S)-4-acetyl-7-[1-(1,1-dioxo-1λ^6-thian-3-yl)-1H-pyrazol-4-yl]-3-methyl-1,2,3,4-tetrahydroquinoxaline-1-carboxylate] | 100 to 1000 | 50 to 500 | 100 to 500 | 
12 | CC(=O)N1c2ccc(-c3ccc(C(=O)N4CCNCC4)cc3)cc2N(C(=O)OC2CCOCC2)C[C@@H]1C [Example I-498] | 100 to 1000 | 50 to 500 | 100 to 500 | 
13 | CC(=O)N1c2ccc(-c3cnn(CCN4CCCS4(=O)=O)c3)cc2N(C(=O)C2CC2)C[C@@H]1C [Example I-659] | 100 to 1000 | 50 to 500 | > 500 | 
14 | CC(=O)N1c2ccc(-c3ccc(S(N)(=O)=O)cc3)cc2N(C(=O)c2ccco2)C[C@@H]1C [Example I-281] | 1000 to 10000 | < 50 | 100 to 500 | 
15 | CC(=O)N1c2ccc(-c3ccc(C(=O)N4C[C@@H]5C[C@H]4CN5)cc3)cc2N(C(=O)OC(C)C)C[C@@H]1C [Example I-593] | 100 to 1000 | 50 to 500 | 100 to 500 | 
16 | CC(=O)N1c2ccc(-c3ccc(C(=O)N4CCNCC4)cc3)cc2N(C(=O)Oc2ccccc2)C[C@@H]1C [Example I-99, phenyl (S)-4-acetyl-3-methyl-7-(4-(piperazine-1-carbonyl)phenyl)-3,4-dihydroquinoxaline-1(2H)-carboxylate] | < 100 | < 50 |  | < 100
17 | CC(C)OC(=O)N1C[C@H](C)N(C(=O)C2CC2)c2ccc(-c3cnn(C(C)(C)C)c3)cc21 [Example I-331] | 100 to 1000 | > 500 | > 500 | 
18 | CNS(=O)(=O)c1cccc(-c2ccc3c(c2)N(C(=O)OC(C)C)C[C@H](C)N3C(C)=O)c1 [Example I-1107] | 100 to 1000 | 50 to 500 | 100 to 500 | 
19 | CC(=O)N1c2ccc(-c3cnn(C4CS(=O)(=O)C4)c3)cc2N(C(=O)OC(C)C)C[C@@H]1C [Example I-1306] | 100 to 1000 | 50 to 500 | > 500 | 
20 | CC(=O)N1c2ccc(-c3ccc(S(C)(=O)=O)cc3)cc2N(C(=O)OC2CCC2)C[C@@H]1C [Example I-493] | 100 to 1000 | 50 to 500 | 100 to 500 | 

Source: patent US10703764B2, “Benzopiperazine compositions as BET bromodomain inhibitors” (FORMA Therapeutics, Inc., priority 2013, dated 2020)
